Source: publication doi:10.1101/2025.07.11.664310v1 (biorxiv, 2025)

Columns and labels:
hOGG1 = hOGG1 (Homo sapiens, UniProt O15527); assay: Cas12a-coupled fluorescence assay, 8-oxoG DNA hairpin transducer; format: biochemical
Fpg = target: T1, Fpg (Escherichia coli, UniProt P05523); assay: as above; format: biochemical
T1 sequence (P05523 2-269): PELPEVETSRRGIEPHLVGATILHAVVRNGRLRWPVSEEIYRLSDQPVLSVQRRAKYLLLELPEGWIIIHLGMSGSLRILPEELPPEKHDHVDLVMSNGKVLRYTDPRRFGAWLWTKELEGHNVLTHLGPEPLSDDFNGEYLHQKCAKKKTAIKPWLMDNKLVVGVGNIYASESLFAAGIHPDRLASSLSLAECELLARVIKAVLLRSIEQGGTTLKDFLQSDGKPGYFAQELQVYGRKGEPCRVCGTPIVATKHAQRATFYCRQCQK

hOGG1, sequence (O15527 whole entry): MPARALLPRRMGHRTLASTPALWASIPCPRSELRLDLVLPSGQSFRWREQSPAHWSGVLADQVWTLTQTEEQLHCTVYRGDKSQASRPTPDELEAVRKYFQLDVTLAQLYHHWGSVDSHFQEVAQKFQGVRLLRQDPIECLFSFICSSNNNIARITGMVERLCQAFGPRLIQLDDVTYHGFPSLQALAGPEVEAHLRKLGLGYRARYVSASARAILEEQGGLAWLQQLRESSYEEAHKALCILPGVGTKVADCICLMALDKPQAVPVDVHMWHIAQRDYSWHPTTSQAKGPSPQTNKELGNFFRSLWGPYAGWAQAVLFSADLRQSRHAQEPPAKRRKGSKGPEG

SMILES | IC50 (hOGG1) | IC50 (Fpg)
NNC(=O)c1sc2cccc(Cl)c2c1Cl [Inh#1, O8] | 2.5 ± 0.5 µM | –
O=c1[nH]c2[nH]c(=S)[nH]c(=O)c2[nH]1 [Inh#4, Mercapto-6,8-purinediol] | 11.9 ± 0.4 µM | 70.3 ± 0.7 µM
